{
  "source": "patent US20060247311A1",
  "about": "“Methods for treating lower urinary tract disorders using alpha2delta subunit calcium channel modulators with smooth muscle modulators” (priority 2003, published 2006)",
  "key": {"[1]": {"system": "α2δ subunit of calcium channels", "conditions": "Bryans et al. (1999); cited from earlier work"}, "[2]": {"conditions": "preclinical and clinical studies, in contrast to gabapentin itself, cited from earlier work"}, "[3]": {"system": "bladder instability and bladder capacity in SCI rats", "conditions": "SCI rats (Cheng et al., 1995); cited from earlier work"}, "[4]": {"system": "reduction in bladder capacity following continuous infusion of dilute acetic acid", "test": "Dilute acetic acid model in cats (bladder capacity, voiding efficiency)", "assay_type": "in vivo", "conditions": "cat, gabapentin 30 mg/kg dose alone", "quoted_text": "The objective of this study was to determine the ability of an α2δ subunit calcium channel modulator in combination with a smooth muscle modulator to reverse the reduction in bladder capacity seen following continuous infusion of dilute acetic acid in a cat model, a commonly used model of overactive bladder.\nAlpha-chloralose anesthetized (50-100 mg/kg) normal female cats (2.5-3.5 kg; Harlan) were utilized in this study.\nAnimals were dosed by volume of injection=body weight in kg.\nFemale cats (2.5-3.5 kg; Harlan) had their food removed the night before the experiment. The following morning, the cat was anesthetized with isoflurane and prepped for surgery using aseptic technique. Polyethylene catheters were surgically placed to permit the measurement of bladder pressure, urethral pressure, arterial pressure, respiratory rate as well as for the delivery of drugs. Fine wire electrodes were implanted alongside the external urethral anal sphincter. Following surgery, the cats were slowly switched from the gas anesthetic isoflurane (2-3.5%) to alpha-chloralose (50-100 mg/kg). During control cystometry, saline was slowly infused into the bladder (0.5-1.0 m/min) for 1 hour. […] After assessing the cystometric variables under these baseline conditions, the effects of test drug(s) on micturition were determined via a 3-5 point dose response protocols. […]"}, "[5]": {"test": "in vivo", "conditions": "female, rat, iv; for AUC(0-t): AUC0-t (Mean); for Cmax: Cmax (Mean); for Vd: Vz (Mean); for half-life: t1/2 (Mean)"}, "[6]": {"system": "reduction in bladder capacity following continuous infusion of dilute acetic acid", "test": "Dilute acetic acid model, acute anesthetized in vivo model (bladder capacity by cystometry)", "conditions": "rat, isobologram construction, i.v.; both drugs alone and low-dose combinations", "description": "Urethane anesthetized (1.2 g/kg) normal female rats were utilized in this study.\nAnimal Preparation: Female rats (250-300 g body weight) were anesthetized with urethane (1.2 g/kg) and a saline-filled catheter (PE-50) was inserted into the jugular vein for intravenous drug administration. […] The abdominal cavity was moistened with saline and closed by covering with a thin plastic sheet in order to maintain access to the bladder for emptying purposes. Fine silver or stainless steel wire electrodes were inserted into the external urethral sphincter (EUS) percutaneously for electromyography (EMG).\nFollowing 30 minutes of AA infusion, 3 vehicle injections were made at 20 minute intervals to determine vehicle effects, if any.\nP<0.050 was considered significant."}, "[7]": {"conditions": "100 mg/kg, gabapentin in rat plasma after 100 mg/kg gabapentin i.v., alone (Gab) or with 3 mg/kg oxybutynin (Com), group Mean, outliers excluded"}, "[8]": {"conditions": "100 mg/kg, gabapentin in rat plasma after 100 mg/kg gabapentin i.v., alone (Gab) or with 3 mg/kg oxybutynin (Com), group Mean"}, "[9]": {"conditions": "female, rat, in vivo, iv, 3 mg/kg"}},
  "note": "“And” between values parts separate entries of the source, which are not always exact repeats. Equal values may be shown once.",
  "data": [
    {"smiles": "CC(C)C[C@H](CN)CC(=O)O", "note": "[Pregabalin, (S)-(3-aminomethyl)-5-methylhexanoic acid]", "values": [
      {"measurement": "binding affinity for the α2δ subunit of calcium channels compared with gabapentin", "setting": "[1]", "result": "even higher binding affinity"}
    ]},
    {"smiles": "CC(OC(=O)NCC1(CC(=O)O)CCCCC1)OC(=O)C(C)C", "note": "(stereo not drawn) [XP13512]", "values": [
      {"measurement": "blood levels of gabapentin across a broad range of oral doses", "setting": "[2]; oral", "result": "dose proportional blood levels of gabapentin"},
      {"measurement": "absorption from the large intestine", "setting": "[2]", "result": "absorbed efficiently from the large intestine"}
    ]},
    {"smiles": "COc1cc(CNC(=O)CCCC/C=C/C(C)C)ccc1O", "note": "[capsaicin]", "values": [
      {"measurement": "bladder capacity to voiding", "setting": "[3]", "result": "not effect bladder capacity to voiding"},
      {"measurement": "bladder instability", "setting": "[3]", "result": "reduce bladder instability"}
    ]},
    {"smiles": "NCC1(CC(=O)O)CCCCC1", "note": "[gabapentin, 1-(aminomethyl) cyclohexaneacetic acid]", "values": [
      {"measurement": "effect on bladder capacity", "setting": "[4]", "result": "no significant effect"},
      {"measurement": "AUC(0-t)", "setting": "[5]; [7]", "result": 158, "unit": "µg·h/mL"},
      {"measurement": "AUC(0-inf)", "setting": "[5]; 100 mg/kg, AUC0-∞ (Mean), gabapentin in rat plasma after 100 mg/kg gabapentin i.v., alone (Gab) or with 3 mg/kg oxybutynin (Com), group Mean", "result": 270, "unit": "µg·h/mL"},
      {"measurement": "AUC(0-inf)", "setting": "[5]; 100 mg/kg, AUC0-∞, gabapentin in rat plasma after 100 mg/kg gabapentin i.v., alone (Gab) or with 3 mg/kg oxybutynin (Com), individual animals", "result": 325, "unit": "µg·h/mL"},
      {"measurement": "clearance", "setting": "[5]; 100 mg/kg, CL (Mean), gabapentin in rat plasma after 100 mg/kg gabapentin i.v., alone (Gab) or with 3 mg/kg oxybutynin (Com), group Mean", "result": 6.52, "unit": "mL/min/kg"},
      {"measurement": "clearance", "setting": "[5]; 100 mg/kg, CL, gabapentin in rat plasma after 100 mg/kg gabapentin i.v., alone (Gab) or with 3 mg/kg oxybutynin (Com), individual animals", "result": 5.12, "unit": "mL/min/kg"},
      {"measurement": "Cmax", "setting": "[5]; [7]", "result": 98600, "unit": "ng/mL"},
      {"measurement": "Tmax", "setting": "[5]; 100 mg/kg, Tmax, gabapentin in rat plasma after 100 mg/kg gabapentin i.v., alone (Gab) or with 3 mg/kg oxybutynin (Com), individual animals", "result": 15, "unit": "min"},
      {"measurement": "Vd", "setting": "[5]; [8]", "result": 1.24, "unit": "L/kg"},
      {"measurement": "half-life", "setting": "[5]; [8]", "result": 128, "unit": "min"},
      {"measurement": "AUC0-∞", "setting": "gabapentin in rat plasma after 100 mg/kg gabapentin i.v., alone (Gab) or with 3 mg/kg oxybutynin (Com), individual animals, listed as Gab", "result": "1.37e+07 ng·min/mL and 2.19e+07 ng·min/mL and 1.44e+07 ng·min/mL"},
      {"measurement": "common maximal effect / target value, return to % of saline control bladder capacity (individual responses)", "setting": "[6]", "result": "31 % of saline control"},
      {"measurement": "common maximal effect, return to % of saline control bladder capacity (group mean data)", "setting": "[6]", "result": "43 % of saline control"}
    ]},
    {"smiles": "CCN(CC)CC#CCOC(=O)C(O)(c1ccccc1)C1CCCCC1", "note": "(stereo not drawn) [oxybutynin, 4-diethylaminio-2-butynyl phenylcyclohexyglycolate]", "values": [
      {"measurement": "Tmax", "setting": "[5]; 3 mg/kg", "result": 15, "unit": "min"},
      {"measurement": "AUC(0-t)", "setting": "[5]; 3 mg/kg", "result": 0.335, "unit": "µg·h/mL"},
      {"measurement": "AUC(0-inf)", "setting": "[5]; 3 mg/kg, AUC0-∞ (Mean)", "result": 0.41, "unit": "µg·h/mL"},
      {"measurement": "clearance", "setting": "[5]; 3 mg/kg, CL (Mean)", "result": 134, "unit": "mL/min/kg"},
      {"measurement": "Cmax", "setting": "[5]; 3 mg/kg", "result": 329, "unit": "ng/mL"},
      {"measurement": "Vd", "setting": "[5]; 3 mg/kg", "result": 10.1, "unit": "L/kg"},
      {"measurement": "half-life", "setting": "[5]; 3 mg/kg", "result": 54, "unit": "min"},
      {"measurement": "AUC0-t (Mean)", "setting": "[9]", "result": 144, "unit": "ng·min/mL"},
      {"measurement": "AUC0-∞ (Mean)", "setting": "[9]", "result": 289, "unit": "ng·min/mL"},
      {"measurement": "Vz (Mean)", "setting": "[9]", "result": 1310.999, "unit": "L/kg"},
      {"measurement": "common maximal effect / target value, return to % of saline control bladder capacity (individual responses)", "setting": "[6]", "result": "31 % of saline control"},
      {"measurement": "common maximal effect, return to % of saline control bladder capacity (group mean data)", "setting": "[6]", "result": "43 % of saline control"}
    ]}
  ]
}
